Measurements: patent US9309511B2, “Functional assay for identification of loss-of-function mutations in genes” (priority 2007, dated 2016)
One block for each compound: values may come before it.

Tests used:
BRCA2^Δex11/P3292L cells = experiment: Cell proliferation assay upon drug treatment, SyVaL clone P3292L; format: cell-based, human; conditions: 6 days
Description: (§1) Alternately, exon 27 was targeted in the hemizygous cells using a construct whose right homology arm included intact exon 27 and individual sequence variants. Homologous integration of the construct, the presence of desired sequence variants and allelic phase of the construct were determined by allele-specific PCR and sequencing. An analogous vector design was used by Hurley et al. to introduce an ATR mutation into alleles of a human cell (Hurley, P. J. et al., Oncogene. 2007. 26, 2535-42, incorporated herein by reference).
(§2) In each well of 96-well plates, 1000 cells were plated, allowed to adhere and treated with various drugs. The drugs were obtained from Sigma (St. Louis, Mo.) except for SJG-136 which was generously provided by Ipsen Ltd. and the National Cancer Institute, NIH. The cells were washed after 6 days and lysed in 100 uL of water. Fluorescence was measured after addition of 0.5% Picogreen® (Molecular Probes, Eugene, Oreg.) using a fluorometer (Fusion®, Perkin Elmer, Shelton, Conn.). Three independent experiments were performed per drug.

[1] = test system: BRCA2-deficient mouse thymocytes; conditions: Flores et al., Mol Carcinog 2002; cited from earlier work
[2] = test system: BRCA2^wt/Δex11 cells (DLD1); experiment: Cell proliferation assay upon drug treatment, hemizygous clone; format: cell-based, human; conditions: 6 days
Description: (§3) DLD1 cells were obtained from ATCC, cultured in conventional media supplemented with 10% fetal calf serum, L-glutamine and penicillin/streptomycin.
as §2

BRCA2^Δex11/S3291A cells = experiment: Cell proliferation assay upon drug treatment, SyVaL clone S3291A; format: cell-based, human; conditions: 6 days
Description: as §1, §2

BRCA2^Δex11/S3291E cells = experiment: Cell proliferation assay upon drug treatment, SyVaL clone S3291E; format: cell-based, human; conditions: 6 days
Description: as §1, §2

BRCA2^Δex11/Y3308X cells = experiment: Cell proliferation assay upon drug treatment, SyVaL clone Y3308X; format: cell-based, human; conditions: 6 days
Description: as §1, §2

[3] = test system: fibroblasts from a Fanconi D1 patient; conditions: reported by Treszezamsky, Cancer Res. 2007; cited from earlier work
BRCA2^Δex11/Y3308Y cells = experiment: Cell proliferation assay upon drug treatment, SyVaL clone Y3308Y; format: cell-based, human; conditions: 6 days
Description: as §1, §2

[4] = test system: BRCA2^Δex11/Δex11 cells (DLD1); experiment: Cell proliferation assay upon drug treatment, BRCA2 knock-out cells; format: cell-based, human; conditions: for FoldΔ: ratio of the IC50 of cells having the hemizygous wild-type allele to the IC50 of cells having the mutated allele: BRCA2^Δex11/Δex11 cells vs control cells, cell proliferation; for FoldΔ: ratio of the IC50 of cells having the hemizygous wild-type allele to the IC50 of cells having the mutated allele / Sensitivity of BRCA2-deficient cells compared to parental and heterozygous cells (in words): 6 days; for Sensitivity of BRCA2-deficient cells compared to parental and heterozygous cells (in words): cell proliferation following drug treatment
Description: as §3, §2

BRCA2^Δex11/P3280H cells = experiment: Cell proliferation assay upon drug treatment, SyVaL clone P3280H; format: cell-based, human; conditions: 6 days
Description: as §1, §2

[5] = test system: BRCA2-deficient mouse small intestines; conditions: Walker et al., J Biol Chem. 2004; cited from earlier work
[6] = test system: ATR^s/s DLD1 colorectal cancer cells; experiment: Proliferation assay for MMC sensitivity in ATR knock-in cells; format: cell-based, human; conditions: 6 d after treatment
Description: For siRNA experiments, the cells were plated in 6-well plates at 500,000 cells/well at 24 h after siRNA transfection. Separate aliquots of each sample were counted at six different time points one to four days after transfection, using two separate aliquots for each time point. Dead cells were separately determined by trypan-blue exclusion and were negligible in number in all samples (<2%). For comparisons between parental cells and FANCD2^+/−. clones, 500,000 cells/well were plated and counted at six time points between 0 and 48 h. Two independent experiments were performed. For MMC sensitivity studies, Picogreen® (Invitrogen) proliferation assays were performed in quadruplicate as described in Gallmeier et al., 2006.

BRCA2-deficient cells = experiment: Cell-cycle analysis by flow cytometry; format: cell-based, human; conditions: 48 h after MMC treatment
Description: Cells were treated with MMC for 48 hours, processed as described previously (Vindelov, L. L., et al., Cytometry 1983. 3: 323-7, incorporated herein by reference) and analyzed by flow cytometry.

BRCA2^Δex11/Δex11 cells = experiment: Chromosome aberration assay; format: cell-based, human; conditions: BRCA2^Δex11/Δex11 vs BRCA2^wt/Δex11, MMC at equitoxic doses, 24 h
Description: Cells were treated with equitoxic doses of MMC (80 nM for BRCA2^wt/Δex11 and 6 nM for BRCA2^Δex11/Δex11) for 24 h. For each sample, 50 metaphases were analyzed using standard techniques by a core facility.

BRCA2 proficient cells = experiment: Rad51 focus-formation (immunofluorescence); format: cell-based, human; conditions: MMC 2.4 μg/ml, 24 h incubation
Description: Cells were treated with MMC (2.4 μg/ml) or gamma irradiation and fixed in PBS/2% paraformaldehyde after 24 h incubation. Following permeabilization in PBS/0.5% Triton X-100 and blocking for 30 min in PBS/1% bovine serum albumin/0.15% glycine, the cells were incubated with an anti-Rad51 antibody (1:200, Calbiochem, San Diego, Calif.) for 2 h. Cells were then washed and incubated with a […] (1:200, Alexa® 488, Molecular Probes, Eugene, Oreg.) for 1 h. After washing, slides were mounted and analyzed by a fluorescent microscope (Zeiss Axiover 135, Maple Grove, Minn.) and Metamorph 4.6 software (Universtal Imaging, Downington, Pa.). Pictures were acquired, keeping exposure time and software settings constant for all samples.
Baseline or induced Rad51 focus formation was considered “negative” when less than 5% or 20%, respectively, of cells had more than 5 nuclear foci and “positive” when more than 5% or 30%, respectively, of cells had more than 5 nuclear foci. Intermediate phenotypes were not observed.

- FoldΔ: ratio of the IC50 of cells having the hemizygous wild-type allele to the IC50 of cells having the mutated allele [2]: NoΔ
- FoldΔ: ratio of the IC50 of cells having the hemizygous wild-type allele to the IC50 of cells having the mutated allele [4]: 10-foldΔ
- FoldΔ: ratio of the IC50 of cells having the hemizygous wild-type allele to the IC50 of cells having the mutated allele ([4]; listed as etoposide): 10 fold
SMILES: COc1cc([C@@H]2c3cc4c(cc3[C@@H](O[C@@H]3O[C@@H]5CO[C@@H](C)O[C@H]5[C@H](O)[C@H]3O)[C@H]3COC(=O)[C@H]23)OCO4)cc(OC)c1O [Etoposide, etoposide]
- FoldΔ: ratio of the IC50 of cells having the hemizygous wild-type allele to the IC50 of cells having the mutated allele (BRCA2^Δex11/P3292L cells): NoΔ
- FoldΔ: ratio of the IC50 of cells having the hemizygous wild-type allele to the IC50 of cells having the mutated allele (BRCA2^Δex11/P3292L cells; listed as etoposide): not significantly more sensitive
- Etoposide sensitivity [1]: no increased etoposide sensitivity
- FoldΔ: ratio of the IC50 of cells having the hemizygous wild-type allele to the IC50 of cells having the mutated allele (BRCA2^Δex11/S3291A cells): NoΔ
- FoldΔ: ratio of the IC50 of cells having the hemizygous wild-type allele to the IC50 of cells having the mutated allele (BRCA2^Δex11/S3291E cells): 3-foldΔ
- FoldΔ: ratio of the IC50 of cells having the hemizygous wild-type allele to the IC50 of cells having the mutated allele (BRCA2^Δex11/S3291E cells; listed as etoposide): 3 fold
- FoldΔ: ratio of the IC50 of cells having the hemizygous wild-type allele to the IC50 of cells having the mutated allele (BRCA2^Δex11/Y3308X cells): 10-foldΔ
- FoldΔ: ratio of the IC50 of cells having the hemizygous wild-type allele to the IC50 of cells having the mutated allele (BRCA2^Δex11/Y3308X cells; listed as etoposide): 10 fold
- Difference in sensitivity of BRCA2 deficient cells to the drug [3]: 2.75 fold
- FoldΔ: ratio of the IC50 of cells having the hemizygous wild-type allele to the IC50 of cells having the mutated allele (BRCA2^Δex11/Y3308Y cells): NoΔ
- FoldΔ: ratio of the IC50 of cells having the hemizygous wild-type allele to the IC50 of cells having the mutated allele (BRCA2^Δex11/Y3308Y cells; listed as etoposide): did not differ from control cells
- Etoposide hypersensitivity in combination with other anticancer agents ([4]; BRCA2-deficient cells): additive to, but not synergistic with
- FoldΔ: ratio of the IC50 of cells having the hemizygous wild-type allele to the IC50 of cells having the mutated allele (BRCA2^Δex11/P3280H cells): NoΔ
- FoldΔ: ratio of the IC50 of cells having the hemizygous wild-type allele to the IC50 of cells having the mutated allele (BRCA2^Δex11/P3280H cells; listed as etoposide): not significantly more sensitive
- Etoposide sensitivity [5]: no increased etoposide sensitivity

SMILES: CO[C@@]12[C@H](COC(N)=O)C3=C(C(=O)C(C)=C(N)C3=O)N1C[C@@H]1N[C@@H]12 [MMC, mitomycin C]
- MMC sensitivity compared to control cells [6]: strikingly more sensitive
- Cell cycle effect (genotype-dependent toxicity) (BRCA2-deficient cells): profound G2/M arrest
- Rates of chromosomal aberrations, including breaks and radials (BRCA2^Δex11/Δex11 cells): much higher rates of chromosomal aberrations
- FoldΔ: ratio of the IC50 of cells having the hemizygous wild-type allele to the IC50 of cells having the mutated allele (BRCA2^Δex11/P3292L cells): not significantly more sensitive and NoΔ
- Cells with induced Rad51 foci (more than 5 foci) (BRCA2 proficient cells): 60-80%
- FoldΔ: ratio of the IC50 of cells having the hemizygous wild-type allele to the IC50 of cells having the mutated allele [2]: NoΔ
- FoldΔ: ratio of the IC50 of cells having the hemizygous wild-type allele to the IC50 of cells having the mutated allele ([2]; listed as mitomycin): absence of mitomycin hypersensitivity
- FoldΔ: ratio of the IC50 of cells having the hemizygous wild-type allele to the IC50 of cells having the mutated allele (BRCA2^Δex11/S3291A cells): NoΔ
- FoldΔ: ratio of the IC50 of cells having the hemizygous wild-type allele to the IC50 of cells having the mutated allele (BRCA2^Δex11/Y3308Y cells): did not differ from control cells and NoΔ
- FoldΔ: ratio of the IC50 of cells having the hemizygous wild-type allele to the IC50 of cells having the mutated allele [4]: 20-foldΔ
- Sensitivity of BRCA2-deficient cells compared to parental and heterozygous cells (in words) [4]: greatly increased sensitivity
- FoldΔ: ratio of the IC50 of cells having the hemizygous wild-type allele to the IC50 of cells having the mutated allele (BRCA2^Δex11/P3280H cells): not significantly more sensitive and NoΔ

- FoldΔ: ratio of the IC50 of cells having the hemizygous wild-type allele to the IC50 of cells having the mutated allele [4]: 20 fold
SMILES: Cc1nc2c(O)cccc2c(=O)[nH]1 [NU1025]

SMILES: C=C1C[C@H]2C=Nc3cc(OCCCOc4cc5c(cc4OC)C(=O)N4CC(=C)C[C@H]4C=N5)c(OC)cc3C(=O)N2C1 [SJG]
- Sensitivity of BRCA2-deficient cells compared to parental and heterozygous cells (in words) [4]: greatly increased sensitivity

SMILES: O=c1cc(-c2ccc(O)cc2)oc2cc(O)cc(O)c12 [apigenin]
- Sensitivity of BRCA2-deficient cells compared to parental and heterozygous cells (in words) [4]: No differences in sensitivities

SMILES: CC[C@@]1(O)C(=O)OCc2c1cc1n(c2=O)Cc2cc3ccccc3nc2-1 [camptothecin]
- FoldΔ: ratio of the IC50 of cells having the hemizygous wild-type allele to the IC50 of cells having the mutated allele [4]: 6 fold

SMILES: N.N.O=C([O-])C1(C(=O)[O-])CCC1.[Pt+2] [carboplatin]
- Sensitivity of BRCA2-deficient cells compared to parental and heterozygous cells (in words) [4]: greatly increased sensitivity

SMILES: N.N.[Cl][Pt][Cl] [cisplatin]
- Sensitivity of BRCA2-deficient cells compared to parental and heterozygous cells (in words) [4]: greatly increased sensitivity

SMILES: COc1cc(/C=C/C(=O)CC(=O)/C=C/c2ccc(O)c(OC)c2)ccc1O [curcumin]
- Sensitivity of BRCA2-deficient cells compared to parental and heterozygous cells (in words) [4]: No differences in sensitivities

- FoldΔ: ratio of the IC50 of cells having the hemizygous wild-type allele to the IC50 of cells having the mutated allele [4]: 10 fold
SMILES: COc1cccc2c1C(=O)c1c(O)c3c(c(O)c1C2=O)C[C@@](O)(C(=O)CO)C[C@@H]3O[C@H]1C[C@H](N)[C@H](O)[C@H](C)O1 [doxorubicin]

SMILES: Nc1ccn([C@@H]2O[C@H](CO)[C@@H](O)C2(F)F)c(=O)n1 [gemcitabine]
- Sensitivity of BRCA2-deficient cells compared to parental and heterozygous cells (in words) [4]: No differences in sensitivities

SMILES: COc1ccc([C@@H]2CC(=O)c3c(O)cc(O[C@@H]4O[C@H](CO[C@@H]5O[C@@H](C)[C@H](O)[C@@H](O)[C@H]5O)[C@@H](O)[C@H](O)[C@H]4O)cc3O2)cc1O [hesperidin]
- Sensitivity of BRCA2-deficient cells compared to parental and heterozygous cells (in words) [4]: No differences in sensitivities

SMILES: N[C@@H](Cc1ccc(N(CCCl)CCCl)cc1)C(=O)O [melphalan]
- Sensitivity of BRCA2-deficient cells compared to parental and heterozygous cells (in words) [4]: greatly increased sensitivity

SMILES: C#C[C@]1(O)CC[C@H]2[C@@H]3CCC4=CC(=O)CC[C@@H]4[C@H]3CC[C@@]21C [norethindrone]
- Sensitivity of BRCA2-deficient cells compared to parental and heterozygous cells (in words) [4]: No differences in sensitivities

SMILES: O=C1[O][Pt]2([NH][C@@H]3CCCC[C@H]3[NH]2)[O]C1=O [oxaliplatin]
- Sensitivity of BRCA2-deficient cells compared to parental and heterozygous cells (in words) [4]: greatly increased sensitivity

SMILES: CC[C@]1(O)C[C@@H]2CN(CCc3c([nH]c4ccccc34)[C@@](C(=O)OC)(c3cc4c(cc3OC)N(C)[C@H]3[C@@](O)(C(=O)OC)[C@H](OC(C)=O)[C@]5(CC)C=CCN6CC[C@]43[C@@H]65)C2)C1 [vinblastine]
- Sensitivity of BRCA2-deficient cells compared to parental and heterozygous cells (in words) [4]: No differences in sensitivities
